Source: publication PMC12197678, “Cvill6 and Cvill7: Potent and Selective Peptide Blockers of Kv1.2 Ion Channel Isolated from Mexican Scorpion Centruroides villegasi” (Toxins, 2025)
Positions of bridges follow the written chain, without caps; N, C: chain ends. Residues, ends and D or L forms follow the SMILES beside them.

What was measured:
hKv11.1 (hERG1) = experiment: Whole-cell patch-clamp, hKv11.1 current in stable HEK293 cells; type: cell-based, human; settings: 100 nM; ~3 min
Description: Appropriate voltage protocols were applied to record the K^+ currents from voltage-clamped cells in whole-cell configurations. Toxins were freshly dissolved in the bath solution supplemented with 0.1 mg/mL BSA and applied to the patched cells via a gravity-fed micro-perfusion system with an approximate flow rate of 200 µL/min.
(§1) HEK 293 cells stably expressing mKCa1.1 1 (BKCa, Kcnma1 gene, generously provided by C. Beeton from Baylor College of Medicine, Houston, TX, USA) or hKv11.1 (hERG1, KCNH2 gene, gifted by H. Wulff from University of California, Davis, CA, USA) were utilized in this study.
Whole-cell currents were recorded using the patch-clamp technique in voltage-clamp mode, following standard protocols [73]. […] Micropipettes were made from GC150F-7.5 borosilicate capillaries (Harvard Apparatus Co., Holliston, MA, USA) using a Sutter P2000 laser puller with tip resistance generally ranging from 3–6 MΩ in the bath solution. Only recordings with a leak current at the holding potential (Vh) of <10% of the peak current at the test potential were included in the data analysis. All recordings were performed at room temperature (20–25 °C). […]

mKCa1.1 (BK or MaxiK) = type: cell-based, mice; settings: 100 nM; ~3 min
Text: Therefore, we investigated the activity of Cvill6 and Cvill7 toxins on three different types of Ca^2+-activated K^+ channels: (1) hKCa2.2 (SK2), the small-conductance Ca^2+-activated channel; (2) hKCa3.1 (IKCa1, SK4), the intermediate-conductance Ca^2+-activated channels, mainly expressed in T lymphocytes; and (3) mKCa1.1 (BK or MaxiK), the large-conductance voltage- and Ca^2+- activated channel of mice. Appropriate depolarization protocols were applied to record the K^+ current through respective KCa channels as shown in the inset of each panel in Figure 6A–C. […] The normalized peak currents (see Section 2.4 or Section 5 for details) for individual cells (n = 5) were averaged at each time point and plotted as a function of time.
as §1
(§2) Whole-cell currents were recorded using the patch-clamp technique in voltage-clamp mode, following standard protocols [73]. […]

hKv1.1 = target: T1, hKv1.1 (Homo sapiens, UniProt Q09470); experiment: cell-based; type: cell-based
T1 construct: host or cells: CHO cells, transient transfection (Lipofectamine 2000)
Text: (§3) For current recordings, Kv1.1, Kv1.2, and Kv1.5 were transiently expressed in CHO cells while for Kv11.1 a stable HEK293 cell line was used. To record Kv1.3 currents human peripheral T lymphocytes were activated with Phytohemagglutinin A (PHA) to boost Kv1.3 expression and Ca^2+-free intracellular solution to prevent the KCa3.1 channel opening. […] Appropriate voltage protocols were applied to record the K^+ currents from voltage-clamped cells in whole-cell configurations. Toxins were freshly dissolved in the bath solution supplemented with 0.1 mg/mL BSA and applied to the patched cells via a gravity-fed micro-perfusion system with an approximate flow rate of 200 µL/min.
Chinese hamster ovary (CHO) cells (generously provided by Yosef Yarden, Weizmann Institute of Science, Rehovot, Israel) or human embryonic kidney (HEK293) cells were cultured and maintained in Dulbecco’s modified Eagle medium (DMEM, Thermo Fisher Scientific, Waltham, MA, USA) supplemented with 2 mM L-glutamine, 10% fetal bovine serum (FBS), 100 µg/mL streptomycin, and 100 U/mL penicillin-g (Sigma-Aldrich, Budapest, Hungary) following standard culturing conditions [52]. For transient expression of ion channels, CHO cells were transfected using the Lipofectamine 2000 kit (Invitrogen, Waltham, MA, USA) following the manufacturer’s instructions with plasmids encoding specific ion channels, including hKv1.1 (KCNA1 gene), hKv1.2 (KCNA2 gene), and hKv1.5 (KCNA5 gene) in a pCMV6-AC-GFP vector (OriGene Technologies), hKCa2.2 (KCNN2 gene) in a pCDN3 plasmid (for this transfection a GFP containing plasmid was co-transfected, courtesy of Bernard Attali, Tel Aviv University, Tel Aviv, Israel), and hKCa3.1 (KCNN4 gene) in a pEGFP-C1 vector (a kind gift by H. Wulff, University of California, Davis, CA, USA). […] Electrophysiological recordings were typically conducted 24 to 48 h after transfection.
Whole-cell currents were recorded using the patch-clamp technique in voltage-clamp mode, following standard protocols [73]. […] Micropipettes were made from GC150F-7.5 borosilicate capillaries (Harvard Apparatus Co., Holliston, MA, USA) using a Sutter P2000 laser puller with tip resistance generally ranging from 3–6 MΩ in the bath solution. Only recordings with a leak current at the holding potential (Vh) of <10% of the peak current at the test potential were included in the data analysis. All recordings were performed at room temperature (20–25 °C). Control and test solutions were perfused to the cells via a gravity-driven micro-perfusion system and AutoMate Perfusion Pencil Multi-Barrel Manifold Tip (AutoMate Scientific, Berkeley, CA, USA), with an approximate flow rate of 200 µL/min, and the excess amount of bath solution was continuously removed from the recording chamber using vacuum suction.
The duration of depolarization pulses was 15 ms for Kv1.3 and 50 ms for Kv1.1 and Kv1.5. However, for Kv1.2, 15–500 ms-long pulses were used to achieve the saturated peak current due to the variable activation kinetics of this channel [74].

hKv1.5 = type: cell-based, human; settings: 100 nM; ~3 min
Text: as §3
Chinese hamster ovary (CHO) cells (generously provided by Yosef Yarden, Weizmann Institute of Science, Rehovot, Israel) or human embryonic kidney (HEK293) cells were cultured and maintained in Dulbecco’s modified Eagle medium (DMEM, Thermo Fisher Scientific, Waltham, MA, USA) supplemented with 2 mM L-glutamine, 10% fetal bovine serum (FBS), 100 µg/mL streptomycin, and 100 U/mL penicillin-g (Sigma-Aldrich, Budapest, Hungary) following standard culturing conditions [52]. For transient expression of ion channels, CHO cells were transfected using the Lipofectamine 2000 kit (Invitrogen, Waltham, MA, USA) following the manufacturer’s instructions with plasmids encoding specific ion channels, including hKv1.1 (KCNA1 gene), hKv1.2 (KCNA2 gene), and hKv1.5 (KCNA5 gene) in a pCMV6-AC-GFP vector (OriGene Technologies), hKCa2.2 (KCNN2 gene) in a pCDN3 plasmid (for this transfection a GFP containing plasmid was co-transfected, courtesy of Bernard Attali, Tel Aviv University, Tel Aviv, Israel), and hKCa3.1 (KCNN4 gene) in a pEGFP-C1 vector (a kind gift by H. Wulff, University of California, Davis, CA, USA). […] Electrophysiological recordings were typically conducted 24 to 48 h after transfection. […]
as §2

hKCa2.2 (SK2) = experiment: Whole-cell patch-clamp, hKCa2.2 current in transfected CHO cells; type: cell-based, human; settings: 100 nM; ~3 min
Text: The scorpion toxins from the α-KTx 2 family also modulate the function of Ca^2+-activated potassium channels, in addition to Kv1 channels. Therefore, we investigated the activity of Cvill6 and Cvill7 toxins on three different types of Ca^2+-activated K^+ channels: (1) hKCa2.2 (SK2), the small-conductance Ca^2+-activated channel; (2) hKCa3.1 (IKCa1, SK4), the intermediate-conductance Ca^2+-activated channels, mainly expressed in T lymphocytes; and (3) mKCa1.1 (BK or MaxiK), the large-conductance voltage- and Ca^2+- activated channel of mice. […] The quantity of native toxins was insufficient to conduct the full dose–response curves at this high concentration range (see above).
Chinese hamster ovary (CHO) cells (generously provided by Yosef Yarden, Weizmann Institute of Science, Rehovot, Israel) or human embryonic kidney (HEK293) cells were cultured and maintained in Dulbecco’s modified Eagle medium (DMEM, Thermo Fisher Scientific, Waltham, MA, USA) supplemented with 2 mM L-glutamine, 10% fetal bovine serum (FBS), 100 µg/mL streptomycin, and 100 U/mL penicillin-g (Sigma-Aldrich, Budapest, Hungary) following standard culturing conditions. […] Cells expressing GFP were identified using a Nikon TE 2000U fluorescence microscope (Nikon, Tokyo, Japan) with bandpass filters set to 455–495 nm for excitation and 515–555 nm for emission. […]

hKCa3.1 (IKCa1, SK4) = target: T2, hKCa3.1 (IKCa1, SK4) (Homo sapiens, UniProt O15554); experiment: Whole-cell patch-clamp, hKCa3.1 current in transfected CHO cells; type: cell-based; settings: for reversibility of KCa3.1 inhibition / time to steady-state block of KCa3.1 / reduction of KCa3.1 current / inhibition at 0.1 µM / remaining current fraction (RCF, I/I0): 100 nM; for reversibility of KCa3.1 inhibition: then toxin-free solution; for time to steady-state block of KCa3.1: 5–6 consecutive traces; for time to steady-state block of KCa3.1 / remaining current fraction (RCF, I/I0) / time to recovery from KCa3.1 block: n = 5; for reduction of KCa3.1 current: representative record; for inhibition at 0.1 µM / potency estimated from few doses: CHO; for inhibition at 0.1 µM: read-out: inhibition of KCa3.1 current; for potency estimated from few doses / remaining current fraction (RCF, I/I0): KCa3.1; for potency estimated from few doses: estimated from a single concentration (100 nM), bimolecular 1:1 interaction, read-out: estimated IC50; for remaining current fraction (RCF, I/I0): mean ± SEM; for time to recovery from KCa3.1 block: toxin-lacking solution after 100 nM
T2 construct: expressed in transfected cells; host or cells: CHO cells, transient transfection (Lipofectamine 2000); plasmid a gift of H. Wulff
Text: The scorpion toxins from the α-KTx 2 family also modulate the function of Ca^2+-activated potassium channels, in addition to Kv1 channels. Therefore, we investigated the activity of Cvill6 and Cvill7 toxins on three different types of Ca^2+-activated K^+ channels: (1) hKCa2.2 (SK2), the small-conductance Ca^2+-activated channel; (2) hKCa3.1 (IKCa1, SK4), the intermediate-conductance Ca^2+-activated channels, mainly expressed in T lymphocytes; and (3) mKCa1.1 (BK or MaxiK), the large-conductance voltage- and Ca^2+- activated channel of mice. Appropriate depolarization protocols were applied to record the K^+ current through respective KCa channels as shown in the inset of each panel in Figure 6A–C. […] Cvill6 reduced ~40% of the KCa3.1 current (Figure 6C), where the RCF value was 0.73 ± 0.05 (n = 5) at 100 nM (Figure 6D). On the other hand, Cvill7 inhibited ~25% of the current at the same concentration (Figure 6C), with an RCF value 0.84 ± 0.03 (n = 5) (Figure 6D). The time course of inhibition of KCa3.1 currents at 100 nM of Cvill6 or Cvill7 is shown in Figure 6E and Figure 6F, respectively. The normalized peak currents (see Section 2.4 or Section 5 for details) for individual cells (n = 5) were averaged at each time point and plotted as a function of time. […] The recovery from the block with Cvill6 to the initial peak current occurred in 4–5 consecutive traces (~0.8 min) and in the case of Cvill7 it took only 2–3 consecutive traces (~0.5 min) after perfusing the cell with toxin-lacking solution. […] The quantity of native toxins was insufficient to conduct the full dose–response curves at this high concentration range (see above).
Chinese hamster ovary (CHO) cells (generously provided by Yosef Yarden, Weizmann Institute of Science, Rehovot, Israel) or human embryonic kidney (HEK293) cells were cultured and maintained in Dulbecco’s modified Eagle medium (DMEM, Thermo Fisher Scientific, Waltham, MA, USA) supplemented with 2 mM L-glutamine, 10% fetal bovine serum (FBS), 100 µg/mL streptomycin, and 100 U/mL penicillin-g (Sigma-Aldrich, Budapest, Hungary) following standard culturing conditions. For transient expression of ion channels, CHO cells were transfected using the Lipofectamine 2000 kit (Invitrogen, Waltham, MA, USA) following the manufacturer’s instructions with plasmids encoding specific ion channels, including hKv1.1 (KCNA1 gene), hKv1.2 (KCNA2 gene), and hKv1.5 (KCNA5 gene) in a pCMV6-AC-GFP vector (OriGene Technologies), hKCa2.2 (KCNN2 gene) in a pCDN3 plasmid (for this transfection a GFP containing plasmid was co-transfected, courtesy of Bernard Attali, Tel Aviv University, Tel Aviv, Israel), and hKCa3.1 (KCNN4 gene) in a pEGFP-C1 vector (a kind gift by H. Wulff, University of California, Davis, CA, USA). Cells expressing GFP were identified using a Nikon TE 2000U fluorescence microscope (Nikon, Tokyo, Japan) with bandpass filters set to 455–495 nm for excitation and 515–555 nm for emission. Electrophysiological recordings were typically conducted 24 to 48 h after transfection.
The extracellular solution (bath solution) for both Kv and KCa channels consisted of 145 mM NaCl, 5 mM KCl, 2.5 mM CaCl2, 1 mM MgCl2, 10 mM HEPES, and 5.5 mM glucose, pH 7.35, and osmolarity between 302 and 308 mOsM/L. For positive control solutions containing various concentrations of tetraethylammoniums (TEA^+), Na^+ was substituted with TEA-Cl in equimolar concentration in the bath solution and all other ingredients remained unchanged. To avoid toxin adsorption onto the plastic surfaces of the perfusion system, 0.1 mg/mL of bovine serum albumin (BSA, Sigma-Aldrich, Budapest, Hungary) was also added into all bath solutions prior to the patch-clamp assay. […]

T2 sequence (O15554 whole entry): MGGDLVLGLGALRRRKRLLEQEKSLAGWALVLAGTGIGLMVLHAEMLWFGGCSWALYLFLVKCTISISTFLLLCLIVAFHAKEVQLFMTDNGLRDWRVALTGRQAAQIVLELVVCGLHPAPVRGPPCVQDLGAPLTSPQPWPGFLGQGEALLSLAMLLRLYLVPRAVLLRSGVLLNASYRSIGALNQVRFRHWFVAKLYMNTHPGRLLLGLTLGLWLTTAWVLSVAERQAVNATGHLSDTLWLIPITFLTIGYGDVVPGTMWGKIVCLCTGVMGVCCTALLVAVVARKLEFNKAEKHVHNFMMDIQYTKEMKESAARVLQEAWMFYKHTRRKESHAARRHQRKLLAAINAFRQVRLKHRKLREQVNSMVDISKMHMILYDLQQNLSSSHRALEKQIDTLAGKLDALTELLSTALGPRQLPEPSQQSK
T1 sequence (Q09470 whole entry): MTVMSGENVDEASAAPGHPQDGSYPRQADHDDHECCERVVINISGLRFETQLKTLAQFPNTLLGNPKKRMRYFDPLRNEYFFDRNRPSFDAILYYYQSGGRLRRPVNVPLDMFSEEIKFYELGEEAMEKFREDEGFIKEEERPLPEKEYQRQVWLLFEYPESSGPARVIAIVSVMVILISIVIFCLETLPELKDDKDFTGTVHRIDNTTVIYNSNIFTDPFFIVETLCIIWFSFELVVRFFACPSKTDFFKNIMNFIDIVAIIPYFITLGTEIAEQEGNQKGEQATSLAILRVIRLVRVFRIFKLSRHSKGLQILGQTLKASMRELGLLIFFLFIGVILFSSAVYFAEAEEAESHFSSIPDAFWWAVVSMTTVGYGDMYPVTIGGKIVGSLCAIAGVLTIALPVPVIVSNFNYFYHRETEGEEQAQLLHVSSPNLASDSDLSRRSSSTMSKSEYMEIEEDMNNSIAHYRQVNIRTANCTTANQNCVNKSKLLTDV

| SMILES | effect on hKv11.1 (hERG1) current (hKv11.1 (hERG1)) | effect on KCa1.1 current (mKCa1.1 (BK or MaxiK)) | effect on hKv1.1 current (hKv1.1; 100 nM) | effect on hKv1.5 current (hKv1.5) | effect on KCa2.2 current (hKCa2.2 (SK2)) | reversibility of KCa3.1 inhibition (hKCa3.1 (IKCa1, SK4)) | time to steady-state block of KCa3.1 (hKCa3.1 (IKCa1, SK4)) | reduction of KCa3.1 current (hKCa3.1 (IKCa1, SK4)) | inhibition at 0.1 µM (hKCa3.1 (IKCa1, SK4)) | potency estimated from few doses (hKCa3.1 (IKCa1, SK4)) | remaining current fraction (RCF, I/I0) (hKCa3.1 (IKCa1, SK4)) | affinity for KCa3.1 relative to Cvill7 (hKCa3.1 (IKCa1, SK4); estimated IC50 comparison) | time to recovery from KCa3.1 block (hKCa3.1 (IKCa1, SK4)) | reduction of hKv1.1 peak current (hKv1.1; 100 nM, representative record, equilibrium block) | potency estimated from few doses (hKv1.1; CHO, read-out: estimated IC50) | inhibition at 0.1 µM (hKv1.1; CHO, read-out: inhibition of Kv1.1 current) |
| --- | --- | --- | --- | --- | --- | --- | --- | --- | --- | --- | --- | --- | --- | --- | --- | --- |
| CC[C@H](C)[C@H](N)C(=O)N[C@@H](Cc1ccccc1)C(=O)N[C@H](C(=O)N[C@@H](CC(N)=O)C(=O)N[C@H](C(=O)N[C@@H](CCCCN)C(=O)N[C@H]1CSSC[C@@H]2NC(=O)[C@H](CCCCN)NC(=O)CNC(=O)CNC(=O)[C@H](C)NC(=O)[C@H](Cc3c[nH]cn3)NC(=O)[C@H](CCC(N)=O)NC(=O)CNC(=O)[C@H](Cc3ccccc3)NC(=O)[C@H](CCCNC(=N)N)NC(=O)[C@H](CC(=O)O)NC(=O)[C@H](CCCCN)NC(=O)[C@@H]3CSSC[C@@H](C(=O)N[C@@H](Cc4ccc(O)cc4)C(=O)N4CCC[C@H]4C(=O)O)NC(=O)[C@H](CCCCN)NC(=O)[C@H](CSSC[C@H](NC(=O)[C@H](CCC(N)=O)NC(=O)[C@H](CCC(N)=O)NC(=O)[C@@H]4CCCN4C(=O)[C@H](CC(C)C)NC(=O)[C@H](CC(=O)O)NC1=O)C(=O)N[C@@H](CC(C)C)C(=O)N[C@@H](CCCNC(=N)N)C(=O)N1CCC[C@H]1C(=O)N3)NC(=O)[C@H](CCCCN)NC(=O)CNC(=O)[C@H](CC(N)=O)NC(=O)[C@H]([C@@H](C)CC)NC2=O)C(C)C)[C@@H](C)CC [Cvill6] (H-IFINVKCDLPQQCLRPCKDRFGQHAGGKCINGKCKCYP-OH; disulfide 7-29, 13-34, 17-36 (inferred); N-terminus and C-terminus assumed) | no change in current amplitudes | Neither Cvill6 nor Cvill7 showed any effect | no change in current amplitudes | no change in current amplitudes | Neither Cvill6 nor Cvill7 showed any effect | inhibit the KCa3.1 channel reversibly with quick association and dissociation kinetics | ~ 1 min | ~ 40% | ~27% | ~268 nM | 0.73 ± 0.05 | two-fold higher affinity | ~ 0.8 min |  |  |  |
| CC[C@H](C)[C@H](NC(=O)[C@H](Cc1ccccc1)NC(=O)[C@@H](N)[C@@H](C)O)C(=O)N[C@@H](CC(N)=O)C(=O)N[C@H](C(=O)N[C@@H](CCCCN)C(=O)N[C@H]1CSSC[C@@H]2NC(=O)[C@H](CCCCN)NC(=O)CNC(=O)CNC(=O)[C@H](C)NC(=O)[C@H](Cc3c[nH]cn3)NC(=O)[C@@H]3CCCN3C(=O)CNC(=O)[C@H](Cc3ccc(O)cc3)NC(=O)[C@H](CC(C)C)NC(=O)[C@H](CC(=O)O)NC(=O)[C@H](CCCCN)NC(=O)[C@@H]3CSSC[C@@H](C(=O)N[C@@H](Cc4ccc(O)cc4)C(=O)N[C@@H](CC(N)=O)C(=O)N[C@@H](CC(N)=O)C(N)=O)NC(=O)[C@H](CCCCN)NC(=O)[C@H](CSSC[C@H](NC(=O)[C@H](CCC(N)=O)NC(=O)[C@H](CCCCN)NC(=O)[C@@H]4CCCN4C(=O)[C@H](CO)NC(=O)[C@H]([C@@H](C)O)NC1=O)C(=O)N[C@@H](CC(C)C)C(=O)N[C@@H](CCCCN)C(=O)N1CCC[C@H]1C(=O)N3)NC(=O)[C@H](CCCCN)NC(=O)CNC(=O)[C@H](CC(N)=O)NC(=O)[C@H](CCSC)NC2=O)C(C)C [Cvill7] (H-TFINVKCTSPKQCLKPCKDLYGPHAGGKCMNGKCKCYNN-NH2; disulfide 7-29, 13-34, 17-36; N-terminus and C-terminus assumed) | did not show any effect | Neither Cvill6 nor Cvill7 showed any effect |  | did not show any effect | Neither Cvill6 nor Cvill7 showed any effect | inhibit the KCa3.1 channel reversibly with quick association and dissociation kinetics | ~ 1 min | ~ 25% | ~16% | ~527 nM | 0.84 ± 0.03 |  | ~ 0.5 min | ~ 32% | ~192 nM | ~34% |
